In patent US5721246A, “Heterobicyclic sulfonamide and sulfonic ester derivatives” (Eisai Co., Ltd., priority 1993, dated 1998):
≈ marks a conversion by molar mass, not a printed value.

tested on: HCT116; test: animal or person; details: Mus musculus, HCT-116, ip, 504 h; 50 mg/kg/day i.p., once a day for 4 days; nude mice; tumor weight on 21st day; read-out: Growth inhibition ratio
Description: In vivo Antitumor Test Against HCT116 (Human Colon Cancer)
HCT116 (5 to 8×10^6) was subcutaneously transplanted to the flank of each nude mouse (BALB/c·nu/nu, aged 7 to 8 weeks, female). A test compound according to the present invention was suspended in a physiological saline containing 3.5% of dimethyl sulfoxide and 6.5% of Tween 80 and the obtained suspension was intraperitoneally administered to the mice treated above once a day in a predetermined dose for 4 days after the time at which the tumor volume had increased to about 100 mm^3, which was about 7 days after the transplantation. On the other hand, only a physiological saline containing 3.5% of dimethyl sulfoxide and 6.5% of Tween 80 was intraperitoneally administered to the mice of the control group. The control group was composed of ten mice, while each treated group was composed of five mice. On the 21st day after the initiation of administration, the tumor was extirpated from each mouse to determine its weight. The tumor growth inhibition ratio was determined by the following formula: [formula] T: average weight of tumor of the treated group C: average weight of tumor of the control group

Row | Compound | inhibition in vivo at 50 mg/kg [%]
1 | Nc1ccc(S(=O)(=O)Nc2cccc3c(Cl)c[nH]c23)cn1 [Example 33] | 74
2 | NS(=O)(=O)c1ccc(S(=O)(=O)Nc2cccc3c(Cl)c[nH]c23)cc1 [Example 19] | 88
3 | CS(=O)(=O)NCc1ccc(S(=O)(=O)Nc2cccc3c(Cl)c[nH]c23)cc1 [Example 53] | 86
4 | CC(C)Nc1ccc(S(=O)(=O)Nc2cccc3c(Cl)c[nH]c23)cn1 [Example 46] | 84
5 | CS(=O)(=O)Cc1ccc(S(=O)(=O)Nc2cccc3c(Cl)c[nH]c23)cc1 [Example 73] | 78

same assay, conditions: Mus musculus, HCT-116, ip, 504 h; 100 mg/kg/day i.p., once a day for 4 days; nude mice; tumor weight on 21st day; read-out: Growth inhibition ratio

Row | Compound | inhibition in vivo at 100 mg/kg [%]
6 | CS(=O)(=O)c1ccc(S(=O)(=O)Nc2cccc3c(Cl)c[nH]c23)cc1 [Example 23] | 87
7 | N#Cc1ccc(S(=O)(=O)Nc2cccc3c(C#N)c[nH]c23)cc1 [Example 28] | 77
8 | NS(=O)(=O)c1ccc(S(=O)(=O)Nc2ccc(Cl)c3c(Cl)c[nH]c23)cc1 [Example 21] | 95
9 | N#Cc1c[nH]c2c(NS(=O)(=O)c3ccc(N)nc3)cccc12 [Example 37] | 93
10 | CS(=O)(=O)Nc1ccc(S(=O)(=O)Nc2cccc3c(Cl)c[nH]c23)cc1 [Example 4] | 97

tested on: colon 38 cells; test: In vitro antitumor test against colon 38 cells (MTT); type: cell-based; details: 72 h, concentration at which 50% of mouse colon 38 cells are inhibited, 3 days
Protocol: In vitro Antitumor Test Against Colon 38 Cells (Mouse Colon Cancer Cells)
2.5×10^3 (0.1 ml) of colon 38 cells suspended in RPMI1640 medium (a product of Sanko Junyaku) containing 10% of fetal bovine serum, penicillin (100 units/ml), streptomycin (100 μg/ml), mercaptoethanol (5×10^-5 M) and sodium pyruvate (1 mM) were inoculated in each well of a 96-well flat-bottomed microplate, and cultured in an incubator containing 5% of carbon dioxide at 37° C. for one day.
A test compound according to the present invention was dissolved in dimethyl sulfoxide in a concentration of 20 mg/ml and the resulting solution was diluted with 10% fetal bovine serum/RPMI1640 medium to a concentration of 200 μg/ml. The resulting solution was diluted with 10% fetal bovine serum/RPMI1640 medium to prepare 3-fold serial dilutions with the maximum concentration being 200 μg/ml. The obtained dilutions were each poured into the well of the above-described culture plate in an amount of 0.1 ml. The resulting plate was cultured at 37° C. in an incubator containing 5% of carbon dioxide for 3 days.
Thereafter, a solution of MTT[3-(4,5-dimethylthiazol-2-yl)-2,5-diphenyltetrazolium bromide] (having a concentration of 3.3 mg/ml) was added to each well in an amount of 0.05 ml. The resulting mixtures were further incubated for 2 hours. The supernatant was removed from each well by suction. Formed formazan was dissolved in 0.1 ml of dimethyl sulfoxide. The absorbance at 540 nm was determined with a microplate reader and the absorbance was taken as an index of the number of viable cells. The inhibitory ratio of the test compound was calculated according to the following formula to determine the IC50 of the test compound, with the IC50 referring to the concentration at which 50% of mouse colon 38 cells are inhibited: [formula] T: absorbance of well containing a test compound C: absorbance of well containing no test compound

Row | Compound | IC50 [µg/mL]
11 | N#Cc1c[nH]c2c(NS(=O)(=O)c3ccc(Cl)nc3)cccc12 [Example 18] | 0.11 (≈ 0.331 µM)
12 | CSc1ccc(S(=O)(=O)Nc2cccc3c(Cl)c[nH]c23)cc1 [Example 22] | 0.69 (≈ 1.96 µM)
13 | CN(C)CCNc1ccc(S(=O)(=O)Nc2cccc3c(Cl)c[nH]c23)cn1 [Example 47] | 0.22 (≈ 0.559 µM)
14 | CS(=O)(=O)c1ccc(S(=O)(=O)Nc2cccc3c(Cl)c[nH]c23)cc1 [Example 23] | 0.13 (≈ 0.338 µM)
15 | N#Cc1ccc(S(=O)(=O)Nc2cccc3c(C#N)c[nH]c23)cc1 [Example 28] | 0.12 (≈ 0.372 µM)
16 | Nc1ccc(S(=O)(=O)Nc2cccc3c(Cl)c[nH]c23)cn1 [Example 33] | 0.1 (≈ 0.31 µM)
17 | CSCc1ccc(S(=O)(=O)Nc2cccc3c(Cl)c[nH]c23)cc1 [Example 15] | 0.35 (≈ 0.954 µM)
18 | NS(=O)(=O)c1ccc(S(=O)(=O)Nc2cccc3c(Cl)c[nH]c23)cc1 [Example 19] | 0.1 (≈ 0.259 µM)
19 | N#Cc1ccc(NS(=O)(=O)c2ccc(N)cc2)c2[nH]cc(Cl)c12 [Example 32] | 0.17 (≈ 0.49 µM)
20 | COC(=O)Nc1ccc(S(=O)(=O)Nc2cccc3c(Cl)c[nH]c23)cc1 [Example 41] | 0.57 (≈ 1.5 µM)
21 | N#Cc1c[nH]c2c(NS(=O)(=O)c3ccco3)cccc12 [Example 48] | 0.23 (≈ 0.801 µM)
22 | CS(=O)(=O)CCc1ccc(S(=O)(=O)Nc2cccc3c(Cl)c[nH]c23)cc1 [Example 36] | 0.11 (≈ 0.266 µM)
23 | Cc1ccc(NS(=O)(=O)c2ccc(N)cc2)c2[nH]cc(Cl)c12 [Example 27] | 0.1 (≈ 0.298 µM)
24 | NS(=O)(=O)c1ccc(S(=O)(=O)Nc2ccc(Cl)c3c(Cl)c[nH]c23)cc1 [Example 21] | 0.12 (≈ 0.286 µM)
25 | O=S(=O)(Nc1cccc2c(Cl)c[nH]c12)c1ccc(Cl)nc1 [Example 14] | 0.23 (≈ 0.672 µM)
26 | CC(C)Nc1ccc(S(=O)(=O)Nc2cccc3c(Cl)c[nH]c23)cn1 [Example 46] | 0.47 (≈ 1.29 µM)

Row | Compound | IC50 [µg/mL]
27 | NS(=O)(=O)CCc1ccc(S(=O)(=O)Nc2cccc3c(Cl)c[nH]c23)cc1 [Example 35] | 0.14 (≈ 0.338 µM)
28 | CC(=O)Nc1ccc(S(=O)(=O)Nc2cccc3c(Cl)c[nH]c23)cc1Cl [Example 38] | 0.57 (≈ 1.43 µM)
29 | CC(=O)Nc1ccc(S(=O)(=O)Nc2ccc(C)c3c(Cl)c[nH]c23)cc1 [Example 26] | 0.17 (≈ 0.45 µM)
30 | Nc1ccc(S(=O)(=O)Nc2ccc(Cl)c3c(Cl)c[nH]c23)cc1 [Example 8] | 0.09 (≈ 0.253 µM)
31 | Cc1c(Cl)cccc1S(=O)(=O)Nc1cccc2c(C#N)c[nH]c12 [Example 45] | 0.44 (≈ 1.27 µM)
32 | C[S+]([O-])c1ccc(S(=O)(=O)Nc2cccc3c(Cl)c[nH]c23)cc1 (stereo not shown) [Example 24] | 0.09 (≈ 0.244 µM)
33 | N#Cc1c[nH]c2c(NS(=O)(=O)c3ccc(N)nc3)cccc12 [Example 37] | 0.19 (≈ 0.606 µM)
34 | CONS(=O)(=O)c1ccc(S(=O)(=O)Nc2cccc3c(Cl)c[nH]c23)cc1 [Example 43] | 0.47 (≈ 1.13 µM)
35 | CN(C)S(=O)(=O)Nc1ccc(S(=O)(=O)Nc2cccc3c(Cl)c[nH]c23)cc1 [Example 49] | 0.32 (≈ 0.746 µM)
36 | CS(=O)(=O)Nc1ccc(S(=O)(=O)Nc2cccc3c(Cl)c[nH]c23)cc1 [Example 4] | 0.26 (≈ 0.65 µM)
37 | COc1ccc(S(=O)(=O)Nc2cccc3cn[nH]c23)cc1 [Example 13] | 0.63 (≈ 2.08 µM)
38 | N#Cc1c[nH]c2c(NS(=O)(=O)c3ccc(Cl)s3)cccc12 [Example 40] | 0.27 (≈ 0.799 µM)
39 | O=[N+]([O-])c1ccc(S(=O)(=O)Nc2cccc3c(Cl)c[nH]c23)cc1 [Example 2] | 0.54 (≈ 1.54 µM)
40 | C[S+]([O-])Cc1ccc(S(=O)(=O)Nc2cccc3c(Cl)c[nH]c23)cc1 (stereo not shown) [Example 34] | 0.14 (≈ 0.366 µM)
41 | O=S(=O)(Nc1cccc2c(Cl)c[nH]c12)c1cccc(Cl)c1 [Example 7] | 0.22 (≈ 0.645 µM)

Next, values leading:

Row | IC50 [µg/mL] | Compound
42 | 0.28 (≈ 0.693 µM) | O=C(c1ccc(S(=O)(=O)Nc2cccc3c(Cl)c[nH]c23)cc1)N1CCCC1 [Example 75]
43 | 0.09 (≈ 0.238 µM) | CC(=O)N(C)c1ccc(S(=O)(=O)Nc2cccc3c(Cl)c[nH]c23)cc1 [Example 79]
44 | 0.54 (≈ 1.49 µM) | O=S(=O)(Nc1cccc2c(Cl)c[nH]c12)c1ccc(NC2CC2)nc1 [Example 59]
45 | 0.24 (≈ 0.6 µM) | CNS(=O)(=O)c1ccc(S(=O)(=O)Nc2cccc3c(Cl)c[nH]c23)cc1 [Example 61]
46 | 0.87 (≈ 2.49 µM) | CC(=O)c1c[nH]c2c(NS(=O)(=O)c3cccc(Cl)c3)cccc12 [Example 67]
47 | 0.36 (≈ 0.87 µM) | CN(C)S(=O)(=O)c1ccc(S(=O)(=O)Nc2cccc3c(Cl)c[nH]c23)cc1 [Example 74]
48 | 0.26 (≈ 0.644 µM) | CS(=O)(=O)CCc1ccc(S(=O)(=O)Nc2cccc3c(C#N)c[nH]c23)cc1 [Example 78]
49 | 0.42 (≈ 1.01 µM) | CCS(=O)(=O)Nc1ccc(S(=O)(=O)Nc2cccc3c(Cl)c[nH]c23)cc1 [Example 70]
50 | 0.51 (≈ 1.16 µM) | O=S(=O)(Nc1cccc2c(Cl)c[nH]c12)c1ccc(S(=O)(=O)N2CCCC2)cc1 [Example 54]
51 | 0.22 (≈ 0.604 µM) | Cc1c[nH]c2c(NS(=O)(=O)c3ccc(S(C)(=O)=O)cc3)cccc12 [Example 50]
52 | 0.66 (≈ 1.94 µM) | O=S(=O)(Nc1cccc2c(Cl)c[nH]c12)c1ccc(S)nc1 [Example 57]
53 | 0.09 (≈ 0.279 µM) | N#Cc1cccc(S(=O)(=O)Nc2cccc3c(C#N)c[nH]c23)c1 [Example 51]
54 | 0.18 (≈ 0.421 µM) | CS(=O)(=O)NCCc1ccc(S(=O)(=O)Nc2cccc3c(Cl)c[nH]c23)cc1 [Example 62]
55 | 0.23 (≈ 0.612 µM) | N#CCCNc1ccc(S(=O)(=O)Nc2cccc3c(Cl)c[nH]c23)cn1 [Example 71]
56 | 0.12 (≈ 0.29 µM) | CS(=O)(=O)NCc1ccc(S(=O)(=O)Nc2cccc3c(Cl)c[nH]c23)cc1 [Example 53]
57 | 0.19 (≈ 0.587 µM) | O=S(=O)(Nc1cccc2c(Cl)c[nH]c12)c1ccc(O)nc1 [Example 80]
58 | 0.2 (≈ 0.53 µM) | N#Cc1c[nH]c2c(NS(=O)(=O)c3ccc(Br)cn3)cccc12 [Example 65]
59 | 0.25 (≈ 0.566 µM) | CN(CCc1ccc(S(=O)(=O)Nc2cccc3c(Cl)c[nH]c23)cc1)S(C)(=O)=O [Example 81]
60 | 0.08 (≈ 0.256 µM) | Cc1cncc(S(=O)(=O)Nc2cccc3c(C#N)c[nH]c23)c1 [Example 60]
61 | 0.59 (≈ 1.96 µM) | Cn1cnc(S(=O)(=O)Nc2cccc3c(C#N)c[nH]c23)c1 [Example 55]
62 | 0.11 (≈ 0.276 µM) | CS(=O)(=O)Cc1ccc(S(=O)(=O)Nc2cccc3c(Cl)c[nH]c23)cc1 [Example 73]
63 | 0.17 (≈ 0.391 µM) | NS(=O)(=O)Cc1ccc(S(=O)(=O)Nc2ccc(Cl)c3c(Cl)c[nH]c23)cc1 [Example 77]
64 | 0.12 (≈ 0.3 µM) | NS(=O)(=O)Cc1ccc(S(=O)(=O)Nc2cccc3c(Cl)c[nH]c23)cc1 [Example 63]
65 | 0.14 (≈ 0.338 µM) | CN(c1ccc(S(=O)(=O)Nc2cccc3c(Cl)c[nH]c23)cc1)S(C)(=O)=O [Example 52]
66 | 0.47 (≈ 1.14 µM) | CCNS(=O)(=O)c1ccc(S(=O)(=O)Nc2cccc3c(Cl)c[nH]c23)cc1 [Example 69]
67 | 0.57 (≈ 1.46 µM) | N#Cc1c[nH]c2c(NS(=O)(=O)c3ccc(N)cc3)cc(Br)cc12 [Example 68]
68 | 0.23 (≈ 0.629 µM) | NC(=S)c1ccc(S(=O)(=O)Nc2cccc3c(Cl)c[nH]c23)cc1 [Example 64]
69 | 0.27 (≈ 0.631 µM) | CN(Cc1ccc(S(=O)(=O)Nc2cccc3c(Cl)c[nH]c23)cc1)S(C)(=O)=O [Example 83]
70 | 0.2 (≈ 0.545 µM) | O=S(=O)(Nc1cccc2c(Cl)c[nH]c12)c1ccc(NCCO)nc1 [Example 56]
